Source: PMC4102417 (PLoS Neglected Tropical Diseases, 2014)
Structures can show the parent of a compound that is named as a salt. Where two headings read alike, the source gives them in different places.

Legend:
[1] = tested on: T. cruzi (Tulahuen strain); assay: microbe, parasite or virus in culture; assay type: cell-based, Trypanosoma cruzi; conditions: for activity at 10 µM / EC50: Trypanosoma cruzi, TULAHUEN, Fibroblast; for activity at 10 µM: 120 h, read-out: T. cruzi % growth @ 10 uM (Amastigotes); for EC50: read-out: T. cruzi EC50
Description: Compounds were tested against T. cruzi (Tulahuen strain) stably expressing the beta-galactosidase gene as previously described. […] Fibroblasts were plated at a density of 2×10^3 per well in 96 well tissue culture plates. After 24 hours of incubation, 1×10^4 trypomastigotes/well were added to the fibroblasts and incubated for 4 hours before addition of the test compounds from the Spectrum Collection (10 µM final concentration). Cultures were incubated at 37°C for 5 days, then developed with chlorophenol red β-D-galactopyranoside as previously described. The percent inhibition is reported with standard deviation of the mean. […] Z-prime values were calculated for each 96-well plate based on positive (4 wells) and negative controls (4 wells).

3T3 fibroblast cells = assay: cells; assay type: cell-based, murine; conditions: for activity at 10 µM: Mus musculus, NIH3T3, 72 h, read-out: Mammalian (3T3) cell % growth at 10 uM

Structure (SMILES): CCCCCCCC/C=C/CCCCCCCCOP(=O)([O-])OCC[N+](C)(C)C [ELAIDYLPHOSPHOCHOLINE, (9E)-octadec-9-en-1-yl [2-(trimethylazaniumyl)ethyl] phosphate]
- activity at 10 µM ([1]; 10 uM, Table S2): 5%
- activity at 10 µM (3T3 fibroblast cells; 10 uM, Table S2): 93.7%

Structure (SMILES): C=CC(C)(O)CCC1C(=C)CCC2C(C)(CO)CCCC12C (stereo not drawn) [EPI(13)TORULOSOL, 5-[5-(hydroxymethyl)-5,8a-dimethyl-2-methylidene-decahydronaphthalen-1-yl]-3-methylpent-1-en-3-ol]
- activity at 10 µM ([1]; 10 uM, Table S2): 14.5%
- activity at 10 µM (3T3 fibroblast cells; 10 uM, Table S2): 86.1%

Structure (SMILES): CC12CCC3C(CCC4CC(O)CCC43C)C1CCC2=O (stereo not shown) [EPIANDROSTERONE, 5-hydroxy-2,15-dimethyltetracyclo[8.7.0.0^{2,7}.0^{11,15}]heptadecan-14-one]
- activity at 10 µM [1]: 18.8%
- activity at 10 µM (3T3 fibroblast cells): 100%

Structure (SMILES): CC(=O)OC1CC2C(C)(C)C(=O)C3OC3C2(C)C2CCC3(C)C(c4ccoc4)OC(=O)C4OC43C12C (stereo not shown) [EPOXYGEDUNIN, 7-(furan-3-yl)-1,8,12,17,17-pentamethyl-5,16-dioxo-3,6,14-trioxahexacyclo[9.9.0.0^{2,4}.0^{2,8}.0^{12,18}.0^{13,15}]icosan-20-yl acetate]
- activity at 10 µM ([1]; 10 uM, Table S2): 4.4%
- activity at 10 µM (3T3 fibroblast cells; 10 uM, Table S2): 73.4%

Structure (SMILES): CC(C)C(C)/C=C/C(C)C1CCC2C3=CC=C4CC(O)CCC4(C)C3CCC21C (stereo not shown) [ERGOSTEROL, 14-[(3E)-5,6-dimethylhept-3-en-2-yl]-2,15-dimethyltetracyclo[8.7.0.0^{2,7}.0^{11,15}]heptadeca-7,9-dien-5-ol]
- activity at 10 µM ([1]; 10 uM, Table S2): 6%
- activity at 10 µM (3T3 fibroblast cells; 10 uM, Table S2): 99.6%

Structure (SMILES): CCC(=O)O[C@H]1CC[C@H]2[C@@H]3CCc4cc(O)ccc4[C@H]3CC[C@]12C [ESTRADIOL PROPIONATE, (1S,10R,11S,14S,15S)-5-hydroxy-15-methyltetracyclo[8.7.0.0^{2,7}.0^{11,15}]heptadeca-2,4,6-trien-14-yl propanoate]
- activity at 10 µM ([1]; 10 uM, Table S2): 20.3%
- activity at 10 µM (3T3 fibroblast cells; 10 uM, Table S2): 100%

Structure (SMILES): CCOc1ccc(Cc2nccc3cc(OCC)c(OCC)cc23)cc1OCC [ETHAVERINE, 1-[(3,4-diethoxyphenyl)methyl]-6,7-diethoxyisoquinoline]
- activity at 10 µM ([1]; 10 uM, Table S2): 3.7%
- activity at 10 µM (3T3 fibroblast cells; 10 uM, Table S2): 95.1%

Structure (SMILES): CC(=O)OC1CCC2(C)C3=C(CCC2C1(C)C)C1(C)CCC(C(C)CCC=C(C)C)C1(C)CC3 (stereo not shown) [EUPHOL ACETATE, 2,6,6,11,15-pentamethyl-14-(6-methylhept-5-en-2-yl)tetracyclo[8.7.0.0^{2,7}.0^{11,15}]heptadec-1(10)-en-5-yl acetate]
- activity at 10 µM ([1]; 10 uM, Table S2): 12%
- activity at 10 µM (3T3 fibroblast cells; 10 uM, Table S2): 87.6%

Structure (SMILES): N#Cc1nn(-c2c(Cl)cc(C(F)(F)F)cc2Cl)c(N)c1[S+]([O-])C(F)(F)F (stereo not shown) [FIPRONIL, 5-amino-1-[2,6-dichloro-4-(trifluoromethyl)phenyl]-4-(trifluoromethane)sulfinyl-1H-pyrazole-3-carbonitrile]
- activity at 10 µM ([1]; 10 uM, Table S2): 3.7%
- activity at 10 µM (3T3 fibroblast cells; 10 uM, Table S2): 100%

Structure (SMILES): O=c1[nH]c(=O)n(C2CC(O)C(CO)O2)cc1F (stereo not shown) [FLOXURIDINE, 5-fluoro-1-[4-hydroxy-5-(hydroxymethyl)oxolan-2-yl]-1,2,3,4-tetrahydropyrimidine-2,4-dione]
- activity at 10 µM ([1]; 10 uM, Table S2): 2.6%
- activity at 10 µM (3T3 fibroblast cells; 10 uM, Table S2): 86.2%

Structure (SMILES): OCCN1CCN(CCCN2c3ccccc3Sc3ccc(C(F)(F)F)cc32)CC1 [FLUPHENAZINE, 2-(4-{3-[2-(trifluoromethyl)-10H-phenothiazin-10-yl]propyl}piperazin-1-yl)ethan-1-ol]
- activity at 10 µM ([1]; 10 uM, Table S2): 2.2%
- activity at 10 µM (3T3 fibroblast cells; 10 uM, Table S2): 100%

Structure (SMILES): COc1cc2ccc(=O)oc2c(O)c1O [FRAXETIN, 7,8-dihydroxy-6-methoxy-2H-chromen-2-one]
- activity at 10 µM ([1]; 10 uM, Table S2): 8.1%
- activity at 10 µM (3T3 fibroblast cells; 10 uM, Table S2): 100%

Structure (SMILES): O=c1c(-c2ccc(O)cc2)coc2cc(O)cc(O)c12 [GENISTEIN, 5,7-dihydroxy-3-(4-hydroxyphenyl)-4H-chromen-4-one]
- activity at 10 µM ([1]; 10 uM, Table S2): 6.4%
- activity at 10 µM (3T3 fibroblast cells; 10 uM, Table S2): 100%

Structure (SMILES): O=c1c(O)c(-c2ccc(O)c(O)c2)oc2c(OC3OC(CO)C(O)C(O)C3O)c(O)cc(O)c12 (stereo not shown) [GOSSYPIN, 2-(3,4-dihydroxyphenyl)-3,5,7-trihydroxy-8-{[3,4,5-trihydroxy-6-(hydroxymethyl)oxan-2-yl]oxy}-4H-chromen-4-one]
- activity at 10 µM ([1]; 10 uM, Table S2): 17.7%
- activity at 10 µM (3T3 fibroblast cells; 10 uM, Table S2): 100%

Structure (SMILES): Oc1cc2c(cc1O)C1c3ccc(O)c(O)c3OCC1(O)C2 (stereo not shown) [HAEMATOXYLIN, 8-oxatetracyclo[8.7.0.0^{2,7}.0^{12,17}]heptadeca-2,4,6,12,14,16-hexaene-5,6,10,14,15-pentol]
- activity at 10 µM ([1]; 10 uM, Table S2): 3.7%
- activity at 10 µM (3T3 fibroblast cells; 10 uM, Table S2): 100%

Structure (SMILES): COc1ccc2c(c1)[nH]c1c(C)nccc12 [HARMINE, 7-methoxy-1-methyl-9H-pyrido[3,4-b]indole]
- activity at 10 µM ([1]; 10 uM, Table S2): 7.5%
- activity at 10 µM (3T3 fibroblast cells; 10 uM, Table S2): 87.2%

Structure (SMILES): O=c1cc(-c2cc(O)c(O)c(O)c2)oc2cc(O)cc(O)c12 [HIERACIN, 5,7-dihydroxy-2-(3,4,5-trihydroxyphenyl)-4H-chromen-4-one]
- activity at 10 µM ([1]; 10 uM, Table S2): 6.5%
- activity at 10 µM (3T3 fibroblast cells; 10 uM, Table S2): 100%

Structure (SMILES): Oc1ccc(O)cc1 [HYDROQUINONE, benzene-1,4-diol]
- activity at 10 µM [1]: 22.6%
- activity at 10 µM (3T3 fibroblast cells): 93.9%

Structure (SMILES): CCN(CCO)CCCC(C)Nc1ccnc2cc(Cl)ccc12 (stereo not shown) [HYDROXYCHLOROQUINE SULFATE, 2-({4-[(7-chloroquinolin-4-yl)amino]pentyl}(ethyl)amino)ethan-1-ol; sulfuric acid]
- activity at 10 µM ([1]; 10 uM, Table S1): 0.1%
- EC50 ([1]; Table S2, amastigotes): 4640 nM
- activity at 10 µM (3T3 fibroblast cells; 10 uM, Table S1): 100%

Structure (SMILES): CCCCCC(=O)O[C@]1(C(C)=O)CC[C@H]2C3CCC4=CC(=O)CCC4(C)[C@H]3CCC21C (stereo partly drawn) [HYDROXYPROGESTERONE CAPROATE, (1S,11S,14R)-14-acetyl-2,15-dimethyl-5-oxotetracyclo[8.7.0.0^{2,7}.0^{11,15}]heptadec-6-en-14-yl hexanoate]
- activity at 10 µM ([1]; 10 uM, Table S2): 1.8%
- EC50 ([1]; Table S2, amastigotes): 10000 nM
- activity at 10 µM (3T3 fibroblast cells; 10 uM, Table S2): 100%

Structure (SMILES): O=c1c(-c2cc(O)c(O)c(O)c2)coc2cc(O)c(O)c(O)c12 [IRIGENOL, 5,6,7-trihydroxy-3-(3,4,5-trihydroxyphenyl)-4H-chromen-4-one]
- activity at 10 µM ([1]; 10 uM, Table S2): 5.7%
- activity at 10 µM (3T3 fibroblast cells; 10 uM, Table S2): 73.7%

Structure (SMILES): CC(=O)N1CCN(c2ccc(OC[C@H]3CO[C@](Cn4ccnc4)(c4ccc(Cl)cc4Cl)O3)cc2)CC1 [KETOCONAZOLE, 1-[4-(4-{[(2R,4S)-2-(2,4-dichlorophenyl)-2-(1H-imidazol-1-ylmethyl)-1,3-dioxolan-4-yl]methoxy}phenyl)piperazin-1-yl]ethan-1-one]
- activity at 10 µM ([1]; 10 uM, Table S2): 2.1%
- EC50 ([1]; Table S2, amastigotes): 0.3 nM
- EC50 [1]: 1 nM
- activity at 10 µM (3T3 fibroblast cells; 10 uM, Table S2): 100%

Structure (SMILES): C=CC(C)(O)CCC1C(=C)CC(O)C2C(C)(C)CCCC12C (stereo not shown) [LARIXOL, 4-(3-hydroxy-3-methylpent-4-en-1-yl)-4a,8,8-trimethyl-3-methylidene-decahydronaphthalen-1-ol]
- activity at 10 µM ([1]; 10 uM, Table S2): 6.4%
- activity at 10 µM (3T3 fibroblast cells; 10 uM, Table S2): 74%

Structure (SMILES): CCN(CCCCOC(=O)c1ccc(OC)c(OC)c1)C(C)Cc1ccc(OC)cc1 (stereo not shown) [MEBEVERINE, 4-{ethyl[1-(4-methoxyphenyl)propan-2-yl]amino}butyl 3,4-dimethoxybenzoate]
- activity at 10 µM ([1]; 10 uM, Table S2): 4.1%
- activity at 10 µM (3T3 fibroblast cells; 10 uM, Table S2): 92.3%

Structure (SMILES): CN1CCc2c(c3ccccc3n2Cc2ccccc2)C1.O=S(=O)(O)c1cccc2c(S(=O)(=O)O)cccc12 [MEBHYDROLIN NAPHTHALENESULFONATE, 5-benzyl-2-methyl-1H,2H,3H,4H,5H-pyrido[4,3-b]indole; naphthalene-1,5-disulfonic acid]
- T. cruzi % growth @ 10 uM (Amastigotes) ([1]; 10 uM, Table S2): 3.3%
- Mammalian (3T3) cell % growth at 10 uM (3T3 fibroblast cells; 10 uM, Table S2): 100%

Structure (SMILES): CNc1ccc(C(=O)CC(O)CCC(C)C2OC(=O)CC(O)CC(=O)CC(O)CC(O)CC(O)CC(O)CC3(O)CC(O)C(C(=O)OC)C(CC(O[C@@H]4O[C@H](C)[C@@H](O)[C@H](N)[C@@H]4O)/C=C/C=C/C=C/C=C\C=C/C=C/C=C/C2C)O3)cc1 (stereo partly drawn) [MEPARTRICIN, methyl (19E,21E,23Z,25Z,27E,29E,31E)-33-{[(2R,3S,4S,5S,6R)-4-amino-3,5-dihydroxy-6-methyloxan-2-yl]oxy}-1,3,5,7,9,13,37-heptahydroxy-17-{5-hydroxy-7-[4-(methylamino)phenyl]-7-oxoheptan-2-yl}-18-methyl-11,15-dioxo-16,39-dioxabicyclo[33.3.1]nonatriaconta-19,21,23,25,27,29,31-heptaene-36-carboxylate]
- activity at 10 µM ([1]; 10 uM, Table S2): 2.6%
- activity at 10 µM (3T3 fibroblast cells; 10 uM, Table S2): 97.3%

Structure (SMILES): CSc1ccc2c(c1)C(N1CCN(C)CC1)Cc1ccccc1S2 (stereo not shown) [METHIOTHEPIN, (2Z)-but-2-enedioic acid; 1-methyl-4-[6-(methylsulfanyl)-2-thiatricyclo[9.4.0.0^{3,8}]pentadeca-1(15),3,5,7,11,13-hexaen-9-yl]piperazine]
- activity at 10 µM ([1]; 10 uM, Table S2): 4.4%
- activity at 10 µM (3T3 fibroblast cells; 10 uM, Table S2): 69.6%

Structure (SMILES): COC(=O)CCC(C)C1CCC2C3CCC4CC(O)CCC4(C)C3CC(O)C12C (stereo not shown) [METHYL DEOXYCHOLATE, methyl 4-{5,16-dihydroxy-2,15-dimethyltetracyclo[8.7.0.0^{2,7}.0^{11,15}]heptadecan-14-yl}pentanoate]
- activity at 10 µM ([1]; 10 uM, Table S2): 22.9%
- activity at 10 µM (3T3 fibroblast cells; 10 uM, Table S2): 100%

Structure (SMILES): COc1c2c(cc3occ(-c4ccc5c(c4)OCO5)c(=O)c13)OC(C)(C)C=C2 [METHYL ROBUSTONE, 3-(2H-1,3-benzodioxol-5-yl)-5-methoxy-8,8-dimethyl-4H,8H-pyrano[3,2-g]chromen-4-one]
- activity at 10 µM ([1]; 10 uM, Table S2): 2.5%
- activity at 10 µM (3T3 fibroblast cells; 10 uM, Table S2): 68.2%

Structure (SMILES): COc1c(-c2coc3cc4c(cc3c2=O)CC(OC(C)=O)C(C)(C)O4)ccc2c1C=CC(C)(C)O2 (stereo not shown) [MUNDULONE ACETATE]
- activity at 10 µM ([1]; 10 uM, Table S2): 4.6%
- activity at 10 µM (3T3 fibroblast cells; 10 uM, Table S2): 76%
